Data published in patent publication US9877999B2, “Methods for treating metastatic stage prostate cancer” (Ferring International SA, priority 2008, dated 2018).
Several values for one entry are separate records, joined by “and”; a condition that tells them apart may be missing. Equal values may be shown once. Square brackets hold non-standard residues; d marks the D form. Peptide text beside a SMILES is read from it. * marks the point of attachment. dPhe(4-NHCONH2) = NC(=O)Nc1ccc(C[C@@H](N)C(=O)O)cc1; Dihydroorotyl(S) = O=C1C[C@@H](C(=O)*)NC(=O)N1; dPhe(4-Cl) = N[C@H](Cc1ccc(Cl)cc1)C(=O)O; Phe(4-NH2) = Nc1ccc(C[C@H](N)C(=O)O)cc1; d2Nal = N[C@H](Cc1ccc2ccccc2c1)C(=O)O; Lys(iPr) = CC(C)NCCCC[C@H](N)C(=O)O; d3Pal = N[C@H](Cc1cccnc1)C(=O)O

Key:
[1] = system: human CYP450 (cytochrome P450) system
[2] = system: luteinizing hormone (LH); test: Serum LH levels over time (clinical study CS21); assay type: in vivo, human; conditions: day 1; degarelix, ITT analysis set
Experimental: The study also investigated whether degarelix is safe and effective with respect to achieving and maintaining testosterone suppression to castrate levels, evaluated as the proportion of patients with testosterone suppression ≦0.5 ng/mL during 12 months of treatment. […] The study also evaluated the pharmacokinetics of the degarelix dosing regimens investigated. Finally, the study examined the effects of using the degarelix treatment on patients suffering from different stages of cancer.
Patients in two treatment groups received a degarelix starting dose of 240 mg at a concentration of 40 mg/mL (240@40) on day 0 administered as two equivalent subcutaneous (s.c.) injections of 120 mg each. Thereafter, patients received 12 additional single s.c. degarelix doses of either 80 mg at a concentration of 20 mg/mL (80@20: degarelix 240/80 mg group) or 160 mg at a concentration of 40 mg/mL (160@40: degarelix 240/160 mg group) administered s.c. every 28 days.
(§1) The secondary efficacy endpoints were: the proportion of patients with testosterone surge during the first 2 weeks of treatment; the proportion of patients with testosterone level ≦0.5 ng/mL at day 3; the percentage change in PSA from baseline to day 28; the probability of testosterone ≦0.5 ng/mL from day 56 through day 364; the levels of serum testosterone, LH, FSH and PSA over time through the study; the time to PSA failure, defined as two consecutive increases of 50%, and at least 5 ng/mL as compared to nadir; degarelix concentration over the first month and trough levels at day 308 and 336; the frequency and size of testosterone increases at day 255 and/or 259 compared to the testosterone level at day 252; the quality of life on days 0, 28, 84, 168 and end of study visit; the frequency and intensity of hot flushes experienced (scored daily from study start until end of study visit). In addition, two further secondary endpoints were added: the probability of sufficient testosterone response from day 28 through day 364 (a patient was considered to have insufficient testosterone response if they had one testosterone value >1.0 ng/mL or two consecutive testosterone values >0.5 ng/mL at day 28 onwards); and the percentage change in PSA from baseline to day 14.

[3] = system: prostate-specific antigen (PSA); test: PSA failure in prostate cancer patients (clinical study CS21); assay type: in vivo, human; conditions: for proportion of PSA failures: degarelix 240/80 mg
Experimental: For this analysis, PSA failure (a secondary endpoint) was defined as two consecutive increases in PSA of 50% and 5 ng/mL compared with nadir. The time to PSA failure was defined as the number of days from first dosing to where an increase in serum PSA of 50% from nadir and 5 ng/mL, measured on two consecutive occasions at least two weeks apart, was noted. The second occasion was the time point of meeting the criterion. PSA failure rates were also analyzed by disease stage and baseline PSA level.
as §1
The secondary endpoints, probability of testosterone ≦0.5 ng/mL from day 56 through day 364, time to PSA failure, and probability of sufficient testosterone response from day 28 through day 364 were analyzed by the Kaplan-Meier method.

substrate for the human CYP450 system [1]: not a substrate
SMILES: CC(=O)N[C@H](Cc1ccc2ccccc2c1)C(=O)N[C@H](Cc1ccc(Cl)cc1)C(=O)N[C@H](Cc1cccnc1)C(=O)N[C@@H](CO)C(=O)N[C@@H](Cc1ccc(NC(=O)[C@@H]2CC(=O)NC(=O)N2)cc1)C(=O)N[C@H](Cc1ccc(NC(N)=O)cc1)C(=O)N[C@@H](CC(C)C)C(=O)N[C@@H](CCCCNC(C)C)C(=O)N1CCC[C@H]1C(=O)N[C@H](C)C(N)=O [degarelix, D-Alaninamide, N-acetyl-3-(2-naphthalenyl)-D-alanyl-4-chloro-D-phenylalanyl-3-(3-pyridinyl)-D-alanyl-L-seryl-4-[[[(4S)-hexahydro-2,6-dioxo-4-pyrimidinyl]carbonyl]amino]-L phenylalanyl-4-[(aminocarbonyl)amino]-D-phenylalanyl-L leucyl-N6-(1-methylethyl)-L-lysyl-L-prolyl] (Ac-[d2Nal][dPhe(4-Cl)][d3Pal]S[Phe(4-NH2)](Dihydroorotyl(S))[dPhe(4-NHCONH2)]L[Lys(iPr)]P[dA]-NH2)
decrease of median LH from baseline [2]: approximately 88% | median LH level [2]: < 0.7 IU/L | probability of completing the study without experiencing PSA failure by day 364 ([3]; degarelix 240/80 mg group): 91.1% and 91.2% | proportion of PSA failures ([3]; patients with baseline PSA>50 ng/mL): 29.2% | proportion of PSA failures ([3]; patients with metastatic disease at baseline): 21.6%
